Holding throughout (type): cell-based
Test [1] addresses T1, human EDG8 (S1PR5) receptor (Homo sapiens, UniProt Q9H228).
T1 construct: carries the transgenes human EDG8 (S1PR5) receptor (Acession number NP_110387.1); expressed in transfected cells; host or cells: CHO-A21-EDG8#12 (CHO clone co-expressing mitochondrial aequorin and chimaeric Gaqi5)
Kind of test: Aequorin assay, agonist potency, CHO-A21-EDG8#12 cells. The note with it: agonist mode, aequorin luminescence; read-out: S1P5 EC50 range #. The method, then: (§1) Agonistic activity was measured as described below.
(§2) Cell clone CHO-A21-Edg1#17 carries the transgenes human EDG1 (S1PR1) receptor (Accession number NP_001391.2), mitochondrially targeted Aequorin (active part corresponds to accession number 1SL8_A) and chimaeric Gaqi5=Gaq modified with the 5 C-terminal amino-acids replaced with those of the Gai protein (DCGLF). CHO-A2-S1P3 Mix is a cell pool ectopically expressing human EDG3 (S1PR3) receptor (Accession number NP_005217.2) mitochondrially targeted Aequorin (active part has a sequence similar to accession number AY601106.1) and GNA16 (Accession number NP_002059.3). Cell clone CHO-A21-EDG8#12 carries the transgenes human EDG8 (S1PR5) receptor (Acession number NP_110387.1), mitochondrially expressed Aequorin (active part corresponds to accession number 1SL8_A) and chimaeric Gaqi5 (Gaq modified to present the 5 last amino-acids of the Gai protein “DCGLF”; see above). Cells are grown to mid-log phase in culture medium (HAM's F12, 10% FBS, 100 IU/mL penicillin, 100 μg/mL streptomycin, 250 μg/mL Zeocin, 400 μg/mL G418). 18 hours prior to frozen cells preparation, the medium is changed to remove the antibiotics.
(§3) 18 hours prior to the test, vials of frozen cells are quickly thawed in a 37° C. water bath, cells are recovered by centrifugation and resuspended in assay buffer (DMEM/HAM's F12 with HEPES, without phenol red+0.1% fatty acid-free BSA). Cells are gently agitated in suspension overnight at RT in presence of 5 μM of Coelenterazine h (Molecular Probes). On the day of the test, cells are diluted to their final working concentrations in assay buffer and agitated in suspension for 1 h at RT. Cells are then placed in the luminescence reader (Hamamatsu Functional Drug Screening System 6000, FDSS6000). During cells incubation, compounds are prepared in 100% DMSO, and subsequently diluted in assay buffer. Compounds are then dispensed in the assay plate (black, clear-bottom, 384-well plate). After binding of agonists to the human S1P receptor the intracellular calcium concentration increases and binding of calcium to the Aequorin/Coelenterazine complex leads to an oxidation reaction of coelenterazine, which results in the production of Aequorin, coelenteramide, CO2 and light (Dmax 469 nm). The luminescent response is dependent on the agonist concentration. For agonist testing, 30 μL of cell suspension are injected on 30 μL of test compound or reference agonist in the assay plate. The resulting emission of light is recorded for 90 seconds using the FDSS6000. Dose response curves with the reference compounds are performed before testing the compounds. S1P is the reference agonist and JTE-013 the reference antagonist for S1P2.
(§4) Luminescence data are integrated over the reading interval for agonist and antagonist modes. To standardize the emission of recorded light (determination of the “100% signal”) across plates and across different experiments, some of the wells contain 100 μM digitonin or a saturating concentration of ATP (20 μM). Plates also contain the reference agonist at a concentration equivalent to the EC80 obtained during the test validation and the EC100. Dose-response data from test compounds were analyzed with XLfit (IDBS) software using nonlinear regression applied to a sigmoidal dose-response model and the following equation: […]

For test [2], the target named is T2, human EDG1 (S1PR1) receptor (Homo sapiens, UniProt P21453).
T2 construct: expressed in transfected cells; host or cells: CHO-A21-Edg1#17 (CHO clone co-expressing mitochondrial aequorin and chimaeric Gaqi5)
T2 sequence (P21453 whole entry): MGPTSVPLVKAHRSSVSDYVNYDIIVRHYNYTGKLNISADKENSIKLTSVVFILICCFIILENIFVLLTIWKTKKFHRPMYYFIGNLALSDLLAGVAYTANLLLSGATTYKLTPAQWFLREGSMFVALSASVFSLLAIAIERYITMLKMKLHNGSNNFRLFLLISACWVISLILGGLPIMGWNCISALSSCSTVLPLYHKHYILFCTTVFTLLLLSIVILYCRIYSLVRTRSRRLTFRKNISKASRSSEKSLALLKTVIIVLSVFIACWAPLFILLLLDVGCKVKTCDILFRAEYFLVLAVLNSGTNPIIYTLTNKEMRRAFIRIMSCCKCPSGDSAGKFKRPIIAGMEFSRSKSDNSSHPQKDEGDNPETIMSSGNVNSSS
Kind of test: Aequorin assay, agonist potency, CHO-A21-Edg1#17 cells. The note with it: agonist mode, aequorin luminescence; read-out: S1P1 EC50. The method, then:
as §1, §2, §3, §4

For the next test, the target named is T3, S1P4 (Homo sapiens, UniProt O95977).
T3 sequence (O95977 1-384): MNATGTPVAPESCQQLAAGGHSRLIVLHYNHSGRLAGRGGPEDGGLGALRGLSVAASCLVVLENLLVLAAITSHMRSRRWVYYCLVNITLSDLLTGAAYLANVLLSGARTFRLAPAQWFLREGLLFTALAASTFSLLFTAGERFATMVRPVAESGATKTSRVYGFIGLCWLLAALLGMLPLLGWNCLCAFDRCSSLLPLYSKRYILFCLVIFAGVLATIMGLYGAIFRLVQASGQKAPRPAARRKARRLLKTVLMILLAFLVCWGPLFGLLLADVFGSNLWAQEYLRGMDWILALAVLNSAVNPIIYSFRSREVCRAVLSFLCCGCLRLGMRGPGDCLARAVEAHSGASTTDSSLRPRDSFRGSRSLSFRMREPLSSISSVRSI
Description: Aequorin assay, agonist potency, S1P4. Conditions: agonist mode, aequorin luminescence. The method, then: as §1, §3, §4

T1 sequence (Q9H228 whole entry): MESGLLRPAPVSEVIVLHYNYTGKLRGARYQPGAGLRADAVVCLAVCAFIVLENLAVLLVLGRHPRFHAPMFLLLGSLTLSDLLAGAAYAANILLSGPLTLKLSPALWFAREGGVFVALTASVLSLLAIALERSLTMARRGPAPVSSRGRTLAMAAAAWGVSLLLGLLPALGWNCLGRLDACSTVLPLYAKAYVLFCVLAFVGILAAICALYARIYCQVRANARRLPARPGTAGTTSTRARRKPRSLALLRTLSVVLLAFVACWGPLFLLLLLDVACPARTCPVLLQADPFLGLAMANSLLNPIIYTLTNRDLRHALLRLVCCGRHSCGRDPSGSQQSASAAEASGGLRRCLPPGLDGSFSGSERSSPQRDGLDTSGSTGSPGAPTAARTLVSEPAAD

The term EC50 denotes the concentration needed to bring the measured effect to its halfway point. `O=C(O)C1(CN2CC3(Cc4ccc(OCc5c(Cl)cccc5C(F)(F)F)cc4C3)C2)CC1` [Example 47, 1-((5′-((2-chloro-6-(trifluoromethyl)benzyl)oxy)-1′,3′-dihydrospiro[azetidine-3,2′-inden]-1-yl)methyl)cyclopropanecarboxylic acid Compound with 2,2,2-trifluoroacetic acid (1:1)]: the EC50 is no more than 10 nM in test [1], greater than 1000 nM in test [2] and less than 1000 nM at S1P4.

For `O=C(O)CN1CC2(Cc3ccc(OCc4c(F)cccc4F)cc3C2)C1` [Example 13, 2,2,2-trifluoroacetic acid compound with 2-(5′-((2,6-difluorobenzyl)oxy)-1′,3′-dihydrospiro[azetidine-3,2′-inden]-1-yl)acetic acid (1:1)], the EC50 in test [1] was 10 to 100 nM; in test [2], greater than 1000 nM; on S1P4 it was less than 1000 nM.

For `CCOc1ccc(COc2ccc3c(c2)CC2(C3)CN(CC3(C(=O)O)CC3)C2)c(F)c1F` [Example 123, 1-((5′-((4-ethoxy-2,3-difluorobenzyl)oxy)-1′,3′-dihydrospiro[azetidine-3,2′-inden]-1-yl)methyl)cyclopropanecarboxylic acid], the EC50 in test [1] is 1000 to 10000 nM; in test [2] it was greater than 1000 nM; on S1P4 it was less than 1000 nM.

For the molecule `COc1ccc(COc2ccc3c(c2)CC2(C3)CN(CC3(C(=O)O)CC3)C2)cc1` [Example 139, 1-((5′-((4-methoxybenzyl)oxy)-1′,3′-dihydrospiro[azetidine-3,2′-inden]-1-yl)methyl)cyclopropanecarboxylic acid], the figures for the EC50 (in test [1]; in test [2]; at S1P4) were 1000 to 10000 nM, greater than 1000 nM and greater than 1000 nM, respectively.

Turning to `CCOc1ccc(C#Cc2ccc3c(c2)CC2(C3)CN(CC(=O)O)C2)cc1` [Example 77, 2-(5′-((4-ethoxyphenyl)ethynyl)-1′,3′-dihydrospiro[azetidine-3,2′-inden]-1-yl)acetic acid], the EC50 in test [1] is no more than 10 nM; in test [2], less than 1000 nM; at S1P4 it was less than 1000 nM.

Turning to `CC1CCC(C#Cc2ccc3c(c2)OC2(C3)CN(CC(=O)O)C2)CC1` (stereo not drawn) [Example 155, 2-(6′-((4-methylcyclohexyl)ethynyl)-3′H-spiro[azetidine-3,2′-benzofuran]-1-yl)acetic acid], the EC50 in test [1] was 100 to 1000 nM; in test [2], greater than 1000 nM; on S1P4 it was less than 1000 nM.

As for `COc1ccc(CCOc2ccc3c(c2)CC2(C3)CN(CC3(C(=O)O)CC3)C2)cc1` [Example 135, 1-((5′-(4-methoxyphenethoxy)-1′,3′-dihydrospiro[azetidine-3,2′-inden]-1-yl)methyl)cyclopropanecarboxylic acid], the EC50 was 1000 to 10000 nM in test [1], greater than 1000 nM in test [2] and greater than 1000 nM on S1P4.

On to `CCc1cccc(F)c1COc1ccc2c(c1)CC1(C2)CN(CC(=O)O)C1` [Example 21, 2-(5′-((2-ethyl-6-fluorobenzyl)oxy)-1′,3′-dihydrospiro[azetidine-3,2′-inden]-1-yl)acetic acid], for which the EC50 was no more than 10 nM in test [1], greater than 1000 nM in test [2] and less than 1000 nM on S1P4.

`O=C(O)C1(CN2CC3(Cc4ccc(OCc5cccc6c5CCC6)cc4C3)C2)CC1` [Example 125, 1-((5′-((2,3-dihydro-1H-inden-4-yl)methoxy)-1′,3′-dihydrospiro[azetidine-3,2′-inden]-1-yl)methyl)cyclopropanecarboxylic acid]: the values for the EC50 (in test [1]; in test [2]; on S1P4) were 10 to 100 nM, greater than 1000 nM and less than 1000 nM, respectively.

In the case of `O=C(O)C1(CN2CC3(Cc4ccc(OCc5ccccc5F)cc4C3)C2)CC1` [Example 140, 1-((5′-((2-fluorobenzyl)oxy)-1′,3′-dihydrospiro[azetidine-3,2′-inden]-1-yl)methyl)cyclopropanecarboxylic acid], the EC50 was 1000 to 10000 nM in test [1], greater than 1000 nM in test [2] and greater than 1000 nM on S1P4.

Regarding `O=C(O)C1(CN2CC3(Cc4ccc(OCCOc5ccccc5Cl)cc4C3)C2)CC1` [Example 145, 1-((5′-(2-(2-chlorophenoxy)ethoxy)-1′,3′-dihydrospiro[azetidine-3,2′-inden]-1-yl)methyl)cyclopropanecarboxylic acid], the EC50 was 1000 to 10000 nM in test [1], greater than 1000 nM in test [2] and less than 1000 nM on S1P4.

On to `CC(Oc1ccc(C#Cc2ccc3c(c2)CC2(C3)CN(CC(=O)O)C2)cn1)C(F)(F)F` (stereo not drawn) [Example 79, 2-(5′-((6-((1,1,1-trifluoropropan-2-yl)oxy)pyridin-3-yl)ethynyl)-1′,3′-dihydrospiro[azetidine-3,2′-inden]-1-yl)acetic acid], for which the values for the EC50 (in test [1]; in test [2]; at S1P4) were no more than 10 nM, less than 1000 nM and less than 1000 nM, respectively.

As to `O=C(O)C1(CN2CC3(Cc4ccc(OCc5c(F)cccc5Cl)cc4C3)C2)CC1` [Example 34, 1-((5′-((2-chloro-6-fluorobenzyl)oxy)-1′,3′-dihydrospiro[azetidine-3,2′-inden]-1-yl)methyl)cyclopropanecarboxylic acid compound with 2,2,2-trifluoroacetic acid (1:1)], the EC50 was 1000 to 10000 nM in test [1], greater than 1000 nM in test [2] and less than 1000 nM on S1P4.

Consider `O=C(O)CN1CC2(Cc3ccc(OC4Cc5ccccc5C4)cc3C2)C1` [Example 73, 2-(5′-((2,3-dihydro-1H-inden-2-yl)oxy)-1′,3′-dihydrospiro[azetidine-3,2′-inden]-1-yl)acetic acid], for which the EC50 was 100 to 1000 nM in test [1], greater than 1000 nM in test [2] and less than 1000 nM on S1P4.

With `CCOc1ccc(C#Cc2ccc3c(c2)CC2(C3)CN(C3CC(C(=O)O)C3)C2)cc1F` (stereo not drawn) [Example 100, 3-(5′-((4-ethoxy-3-fluorophenyl)ethynyl)-1′,3′-dihydrospiro[azetidine-3,2′-inden]-1-yl)cyclobutanecarboxylic acid], the EC50 in test [1] is no more than 10 nM; in test [2], less than 1000 nM; on S1P4, greater than 1000 nM.

For the molecule `O=C(O)C1(CN2CC3(Cc4ccc(OC5CCc6cccc(Cl)c65)cc4C3)C2)CC1` (stereo not drawn) [Example 129, 1-((5′-((7-chloro-2,3-dihydro-1H-inden-1-yl)oxy)-1′,3′-dihydrospiro[azetidine-3,2′-inden]-1-yl)methyl)cyclopropanecarboxylic acid], the EC50 was no more than 10 nM in test [1], greater than 1000 nM in test [2] and less than 1000 nM at S1P4.

For `CCOc1cc(F)c(COc2ccc3c(c2)CC2(C3)CN(CC3(C(=O)O)CC3)C2)c(F)c1` [Example 122, 1-((5′-((4-ethoxy-2,6-difluorobenzyl)oxy)-1′,3′-dihydrospiro[azetidine-3,2′-inden]-1-yl)methyl)cyclopropanecarboxylic acid], the results for the EC50 (in test [1]; in test [2]; at S1P4) were 1000 to 10000 nM, greater than 1000 nM and less than 1000 nM, respectively.

`O=C(O)CN1CC2(Cc3ccc(C#Cc4ccccc4)cc3C2)C1` [Example 82, 2-(5′-(phenylethynyl)-1′,3′-dihydrospiro[azetidine-3,2′-inden]-1-yl)acetic acid]: the values for the EC50 (in test [1]; in test [2]; at S1P4) were 10 to 100 nM, greater than 1000 nM and less than 1000 nM, respectively.

The values are drawn from patent US20200055817A1 (AbbVie Deutschland GmbH & Co. KG, priority 2016, published 2020).
